# According to patent US20250257051A1, “SUBSTITUTED PYRIMIDINE COMPOUNDS AS TYK2 INHIBITORS” (1910 Genetics Inc., priority 2022, published 2025):
# Counter-ions that a name gives are not always drawn.
# Biological target: human TYK2 (JH2domain-pseudokinase) (Homo sapiens (Human), UniProt P29597)
# Assay: TYK2 JH2 Domain Binding Assay (KINOMEscan competition binding)
# Conditions: KINOMEscan; 11-point 3-fold dilution, top concentration 30,000 nM; Kd measurements in duplicate; read-out: TYK JH2 (Kd)
# Procedure, shortened: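 Competition binding of HEK293-expressed, DNA-tagged TYK2 JH2 (G556–D888)-NFkB fusion in crude extract against immobilized ligand, 1 h at room temperature, 0.9% DMSO. Bead-bound kinase quantified by qPCR; Kd from 11-point 3-fold series (top 30,000 nM), duplicate, Hill fit with slope −1.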
# Chain of human TYK2 (JH2domain-pseudokinase) (P29597 556-888): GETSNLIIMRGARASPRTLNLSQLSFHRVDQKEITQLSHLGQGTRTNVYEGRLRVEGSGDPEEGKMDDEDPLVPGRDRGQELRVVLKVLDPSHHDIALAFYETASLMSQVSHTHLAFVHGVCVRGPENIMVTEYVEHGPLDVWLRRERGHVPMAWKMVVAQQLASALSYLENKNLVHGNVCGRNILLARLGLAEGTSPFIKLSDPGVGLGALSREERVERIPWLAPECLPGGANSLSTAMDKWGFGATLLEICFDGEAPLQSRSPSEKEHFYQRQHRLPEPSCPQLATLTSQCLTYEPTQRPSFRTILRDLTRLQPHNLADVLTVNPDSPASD
row,SMILES,Kd
1,"COc1c(Nc2nc(N3CCCNCC3)ncc2C(N)=O)cccc1-c1ncc(F)cn1 [Compound 73, 2-(1,4-diazepan-1-yl)-4-((3-(5-fluoropyrimidin-2-yl)-2-methoxyphenyl)amino)pyrimidine-5-carboxamide Hydrochloride]",150 nM
2,"CNC(=O)c1cnc(N2CCCNCC2)nc1Nc1cccc(-c2ncc(F)cn2)c1OC [Compound 74, 2-(1,4-diazepan-1-yl)-4-((3-(5-fluoropyrimidin-2-yl)-2-methoxyphenyl)amino)-N-methylpyrimidine-5-carboxamide Hydrochloride]",800 nM
3,"CNC(=O)c1cnc(N2CCCN(C(C)=O)CC2)nc1Nc1ccccc1S(C)(=O)=O [Compound 75, 2-(4-acetyl-1,4-diazepan-1-yl)-N-methyl-4-((2-(methylsulfonyl)phenyl)amino)pyrimidine-5-carboxamide]",1300 nM
4,"CNC(=O)c1cnc(N2CCN(C(C)=O)CC2C)nc1Nc1ccccc1S(C)(=O)=O (stereo not drawn) [Compound 76, 2-(4-acetyl-2-methylpiperazin-1-yl)-N-methyl-4-((2-(methylsulfonyl)phenyl)amino)pyrimidine-5-carboxamide]",210 nM
5,"CNC(=O)c1cnc(N2CCCN(C(C)=O)CC2)nc1Nc1cccc(-c2ncc(F)cn2)c1OC [Compound 77, 2-(4-acetyl-1,4-diazepan-1-yl)-4-((3-(5-fluoropyrimidin-2-yl)-2-methoxyphenyl)amino)-N-methylpyrimidine-5-carboxamide]",170 nM
6,"CS(=O)(=O)c1ccccc1Nc1nc(N2CCC(C(=O)O)CC2)ncc1C(N)=O [Compound 78, 1-(5-carbamoyl-4-((2-(methylsulfonyl)phenyl)amino)pyrimidin-2-yl)piperidine-4-carboxylic Acid]",330 nM
7,"CS(=O)(=O)c1ccccc1Nc1nc(N2CCCNCC2)ncc1C(N)=O [Compound 79, 2-(1,4-diazepan-1-yl)-4-((2-(methylsulfonyl)phenyl)amino)pyrimidine-5-carboxamide hydrochloride]",1700 nM
8,"CC(=O)N1CCCN(c2ncc(C(N)=O)c(Nc3ccccc3S(C)(=O)=O)n2)CC1 [Compound 80, 2-(4-acetyl-1,4-diazepan-1-yl)-4-((2-(methylsulfonyl)phenyl)amino)pyrimidine-5-carboxamide]",950 nM
9,"COc1c(Nc2nc(N3CCCN(C(C)=O)CC3)ncc2C(N)=O)cccc1-c1ncc(F)cn1 [Compound 81, 2-(4-acetyl-1,4-diazepan-1-yl)-4-((3-(5-fluoropyrimidin-2-yl)-2-methoxyphenyl)amino)pyrimidine-5-carboxamide]",370 nM

# Same assay, conditions: Table 4: pyrimidinyl compound of Formula I versus compounds with a different heteroaryl core; read-out: TYK JH2 (Kd)
row,SMILES,Kd
1,CNC(=O)c1cnc(N2CCC(C(=O)NC)C2)nc1Nc1ccc(C2CC2)nc1 (stereo not drawn) [drawing 147],170 nM
2,CNC(=O)c1cnc(N2CCC(C(=O)NC)C2)cc1Nc1ccc(C2CC2)nc1 (stereo not drawn) [reference compound],10000 nM
3,CNC(=O)c1nnc(N2CCC(C(=O)NC)C2)cc1Nc1ccc(C2CC2)nc1 (stereo not drawn) [reference compound],31000 nM
